Values of other authors in patent EP1921109A2, “Grafted cyclodextrin” (Cellresin Technologies, LLC, priority 2004, dated 2005).

Settings: not given

Structure (SMILES)	Flavor Threshold ppb in Water [ppb]	Odor Threshold ppb in Water [ppb]
CC1=CCC2CC1C2(C)C (stereo not drawn) [α-Pinene]	1014	9.5
CCCCCCCC=O [Octanal]	0.52	1.41
CCCCCC=O [Hexanal]	3.66	9.18
C=CC(C)(O)CCC=C(C)C (centres unmarked) [Linalool]	3.8	5.3
C=CC(=C)CCC=C(C)C [β-Myrcene]	42	36
C=C(C)[C@H]1CC=C(C)CC1 [Limonene]	210	60
CC(C)=CCC/C(C)=C/C=O [Geranial]	40.0	
CC(C)=CCC/C(C)=C\C=O [Neral]	41.4	85
CCCC(=O)OCC [Ethyl butyrate]	0.13	0.13
CC1=CCC(C(C)(C)O)CC1 (stereo not drawn) [α-Terpineol]	300	280
CCCCCCCCCC=O [Decanal]	1.07	0.53

Settings: aqueous solutions

Structure (SMILES)	Concentrations of TCA detected in untrained panels
COc1c(Cl)cc(Cl)cc1Cl [TCA, 2,4,6-trichloroanisole]	20 - 30 ppt

Same assay, conditions: aqueous solutions; as low as

Structure (SMILES)	Concentrations of TCA detected by trained panels
COc1c(Cl)cc(Cl)cc1Cl [TCA, 2,4,6-trichloroanisole]	5 - 10 ppt
